Laboratory results from patent US20260183304A1, “COMBINATION OF A TYROSINE KINASE INHIBITOR AND A PRO-INFLAMMATORY AGENT FOR TREATING CANCER” (MDX Management LLC, priority 2022, published 2026).
pIC50: −log10 of the molar value.

Columns and labels:
[1] = tested on: macrophage SHP-1 activity; test: Macrophage SHP-1 (PTP) activity induced by αTLR and cancer cell ligation; format: cell-based, human; conditions: induced by αTLR (CpG, PolyIC, R848) and SW620 cancer cell ligation
Description: . After incubation for 15 minutes at 37° C., cells were gently washed to remove the majority of SW620, followed by lysis of macrophage using Hank's buffer (pH 7.2) containing 1% Triton and 1 mM PMSF. Protein tyrosine phosphatase (PTP) activity was assayed with […] Hank's buffer at 37° C.
(§1) In vitro assays. Macrophage response to αTLR was assayed in the presence of cancer cell ligation and with or without TK inhibitor. Macrophage SHP-1 activity (PTP activity), macrophage expression of antigen presentation machinery and proinflammatory cytokines were assayed.
(§2) The same in vitro macrophage stimulation in the present of cancer cell ligation experimental system as in Example 1 was used.
Specifically, an in vitro macrophage functional assay was set up in the presence of cancer cell (SW620) ligation of macrophage iRs. […]. In vivo anti-tumor efficacies with the combination of αTLR were shown in (FIG. 9C).

macrophages [2] = test: Macrophage proinflammatory cytokine production with αTLR and cancer cell ligation; format: cell-based, human and murine; conditions: αTLR-induced, in presence of cancer cell ligation
Description: (§3) After incubation for 15 minutes at 37° C., cells were gently washed to remove the majority of SW620, followed by lysis of macrophage using Hank's buffer (pH 7.2) containing 1% Triton and 1 mM PMSF. Protein tyrosine phosphatase (PTP) activity was assayed with […] Hank's buffer at 37° C.
as §1, §2

macrophages [3] = test: Macrophage expression of cell surface antigen presentation machinery with αTLR and cancer cell ligation; format: cell-based, human and murine; conditions: αTLR-induced, in presence of cancer cell ligation
Description: as §3, §1, §2

[4] = tested on: MC38, KPC and LLC tumor models; test: Syngeneic murine tumor models, TKi alone or with proinflammatory activators; format: in vivo, mice; conditions: for anti-tumor efficacy, alone/monotherapy: TKi alone
LLC lung cancer = test: LLC tumor treatment and TME analyses; format: in vivo, mice; conditions: combined with αTLR
Description: Three types of solid tumors were tested: 1) MC38 colorectal carcinoma, 2) KPC pancreatic ductal adenocarcinoma, and 3) LLC lung cancer. Tumors were subcutaneously engrafted (s.c.), and treatments started when palpable tumors formed >=200 mm^3. […] In most experiments, TKi and αTLR agonist were together suspended in 500 μl PBS and administered via s.c. at a location distant form tumor. The intermittent treatment scheme was designed to administrate the first cycle, 2× pulse administrations (d1 and d2), an intermittent period (3-7 days), followed by a second cycle treatment.
In vivo tests for anti-tumor efficacy.

SIRPα and PirB = test: iR phosphorylation and binding to SHP-1 in bone-marrow-derived macrophages; conditions: TLR agonist- and cancer ligation-induced, murine bone-marrow-derived macrophages
c-Src = c-Src (Homo sapiens, UniProt P12931); conditions: information vendor provided; cited from earlier work
SIRPα = SIRPα ITIMs phosphorylation and SHP-1 association in macrophages activated by proinflammatory stimuli; format: cell-based; conditions: macrophage activation by proinflammatory stimuli or cancer therapies
Source text: As shown, proinflammatory stimuli (TLR agonists, proinflammatory cytokines IL-1β, IL-6, IL-12, IL-17, IL-18, TNFα, IFNγ, etc., and cancer therapies) induce SIRPα ITIMs phosphorylation and exclusive association of SHP-1 (not SHP-2). Anti-inflammatory cytokine stimulation also induces SIRPα ITIMs phosphorylation but association with SHP-2.

Lck = Lck (Homo sapiens, UniProt P06239); conditions: information vendor provided; cited from earlier work
Lyn = Lyn (Homo sapiens, UniProt P07948); conditions: information vendor provided; cited from earlier work
[5] = tested on: malignant melanoma and advanced malignancies; conditions: Phase I, cited from earlier work
[6] = tested on: TLR7/8 overexpressing pancreatic cancer cell line; conditions: R848-stimulation; cited from earlier work

Sequence of Lck (P06239 whole entry, species assumed): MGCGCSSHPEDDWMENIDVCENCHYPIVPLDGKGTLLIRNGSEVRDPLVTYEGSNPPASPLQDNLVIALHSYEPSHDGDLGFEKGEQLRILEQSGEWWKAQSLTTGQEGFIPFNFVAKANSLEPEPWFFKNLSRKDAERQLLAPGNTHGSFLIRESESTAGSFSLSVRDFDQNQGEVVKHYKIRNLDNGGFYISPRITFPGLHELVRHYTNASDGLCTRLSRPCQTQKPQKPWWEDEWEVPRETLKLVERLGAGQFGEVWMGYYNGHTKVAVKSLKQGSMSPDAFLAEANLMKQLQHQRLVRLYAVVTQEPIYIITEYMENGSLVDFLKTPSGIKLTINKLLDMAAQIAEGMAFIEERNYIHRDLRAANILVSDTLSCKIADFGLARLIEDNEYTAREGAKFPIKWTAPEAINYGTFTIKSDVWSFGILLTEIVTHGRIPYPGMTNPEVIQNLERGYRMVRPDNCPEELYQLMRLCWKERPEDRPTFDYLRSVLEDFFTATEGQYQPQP
Sequence of c-Src (P12931 whole entry): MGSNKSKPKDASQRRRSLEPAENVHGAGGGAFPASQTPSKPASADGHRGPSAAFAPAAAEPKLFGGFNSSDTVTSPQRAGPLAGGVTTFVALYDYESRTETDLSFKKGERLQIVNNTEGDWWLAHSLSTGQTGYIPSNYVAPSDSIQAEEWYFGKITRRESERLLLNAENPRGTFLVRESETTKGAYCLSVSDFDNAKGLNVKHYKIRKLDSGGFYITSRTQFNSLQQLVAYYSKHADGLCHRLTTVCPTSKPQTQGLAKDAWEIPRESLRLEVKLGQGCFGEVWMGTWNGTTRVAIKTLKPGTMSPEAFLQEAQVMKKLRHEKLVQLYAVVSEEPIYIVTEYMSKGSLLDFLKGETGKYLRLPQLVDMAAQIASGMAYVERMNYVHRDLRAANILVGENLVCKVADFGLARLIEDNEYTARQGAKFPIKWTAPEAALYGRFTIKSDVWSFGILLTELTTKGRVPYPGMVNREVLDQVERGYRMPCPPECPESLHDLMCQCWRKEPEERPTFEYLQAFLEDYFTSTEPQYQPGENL
Sequence of Lyn (P07948 whole entry, species assumed): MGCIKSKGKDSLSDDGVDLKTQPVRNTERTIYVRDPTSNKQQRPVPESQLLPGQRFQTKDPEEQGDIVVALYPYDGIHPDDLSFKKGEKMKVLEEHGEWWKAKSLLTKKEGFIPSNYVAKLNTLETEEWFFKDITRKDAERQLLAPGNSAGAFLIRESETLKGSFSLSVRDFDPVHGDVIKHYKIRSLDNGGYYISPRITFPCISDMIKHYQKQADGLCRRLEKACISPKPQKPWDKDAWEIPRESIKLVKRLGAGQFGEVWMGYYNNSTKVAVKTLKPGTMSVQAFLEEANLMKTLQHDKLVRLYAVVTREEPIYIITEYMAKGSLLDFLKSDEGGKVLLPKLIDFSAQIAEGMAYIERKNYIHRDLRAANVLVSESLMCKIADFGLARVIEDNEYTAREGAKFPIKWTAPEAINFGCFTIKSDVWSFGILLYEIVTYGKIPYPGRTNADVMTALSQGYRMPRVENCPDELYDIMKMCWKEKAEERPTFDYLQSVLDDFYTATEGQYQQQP

| Compound | macrophage SHP-1 activity (PTP activity) [1] | production of proinflammatory cytokines (TNFα, IL-6, CXCL1) (macrophages [2]) | expression of cell surface antigen presentation machinery (macrophages [3]) | suppression of LLC tumor (LLC lung cancer) | SIRPα cytoplasmic ITIMs phosphorylation and SIRPα association with SHP-1 (SIRPα) | also measured |
| --- | --- | --- | --- | --- | --- | --- |
| Cc1nc(Nc2ncc(C(=O)Nc3c(C)cccc3Cl)s2)cc(N2CCN(CCO)CC2)n1 [Dasatinib, N-(2-chloro-6-methylphenyl)-2-[[6-[4-(2-hydroxyethyl)-1-piperazinyl]-2-methyl-4-pyrimidinyl]amino]-5-thiazole carboxamide monohydrate] | dose-dependently diminished | marked increases | marked increases | – | – | anti-tumor efficacy, alone/monotherapy [4]: not effective; angiogenesis in tumors ([4]; mouse, in vivo): inhibits; TME immune populations (CD8+ T cells, NK cells, macrophages, MDSC) (LLC lung cancer; LLC tumors, 3-day post treatment, various doses): dose-dependent effect of elevating CD8+ T cells and NK cells and reducing macrophages and MDSC; iR phosphorylation and binding to SHP-1 (SIRPα and PirB): depleted |
| CC(C)CCC[C@@H](C)[C@H]1CC[C@H]2[C@@H]3CCC4C[C@H](N)CC[C@]4(C)[C@H]3CC[C@]12C (stereo partly drawn) [3Ac] | – | – | – | not | – | – |
| Cc1nc(Nc2ncc(C(=O)Nc3cc(NC(=O)c4cccc(C(F)(F)F)c4)ccc3C)s2)cc(N2CCN(CCO)CC2)n1 [UM-164] | capability of diminishing | Neither UM164 nor R406 enabled | elevated | not | – | pIC50 (c-Src): 8.57 |
| C/C(O)=C(\C#N)C(=O)Nc1cc(Br)ccc1Br [LFMA-13] | – | – | – | – | not | – |
| CN1CCN([C@H]2CC[C@H](n3cc(-c4ccc(Oc5ccccc5)cc4)c4c(N)ncnc43)CC2)CC1 [RK-20449, 7-((1R,4R)-4-(4-methylpiperazin-1-yl)cyclohexyl)-5-(4-phenoxyphenyl)-7H-pyrrolo[2,3-d]pyrimidin-4-amine] | dose-dependently diminished | marked increases | marked increases | – | – | anti-tumor efficacy, alone/monotherapy [4]: not effective; pIC50 (Lck): > 8.52; pIC50 (Lyn): > 8.52; iR phosphorylation and binding to SHP-1 (SIRPα and PirB): depleted |
| COc1cc(Nc2ncc(F)c(Nc3ccc4c(n3)NC(=O)C(C)(C)O4)n2)cc(OC)c1OC [R406] | capability of diminishing | Neither UM164 nor R406 enabled | elevated | effectively suppressed | – | intratumoral CD8+ T cell expansion (LLC lung cancer): induced intratumoral CD8+ T cell expansion; intratumoral macrophage antigen presentation (LLC lung cancer): induced intratumoral macrophages for antigen presentation |
| Cc1ccc(-c2nn(C(C)(C)C)c3ncnc(N)c23)cc1 [PP1] | – | – | – | – | diminished | – |
| CC(C)(C)n1nc(-c2ccc(Cl)cc2)c2c(N)ncnc21 [PP2] | – | – | – | – | diminished | – |
| O.O.O.O.O.O.O.O.O.O=C([O-])[C@@H]1[O][Sb]2([O-])([O][Sb]34([OH])[O][C@H]([C@H](O)CO)[C@H]([O]3)[C@H](C(=O)[O-])[O]4)[O][C@H]([C@H](O)CO)[C@@H]1[O]2.[Na+].[Na+].[Na+] [SSG, sodium stibogluconate] | – | – | – | – | – | effect against tumor development ([5]; in combination with interferons followed or not by chemotherapy): no effect; patients with most common toxic side-effects [5]: up to 68% |
| CCOCc1nc2c(N)nc3ccccc3c2n1CC(C)(C)O [R848] | – | – | – | – | – | cell proliferation [6]: increased; chemosensitivity [6]: reduced |
